# ChEMBL document CHEMBL1201862, “PubChem BioAssay data set” (2004)
# Calls of active or inactive are those of the source.
# Experiments:
# Hexokinase = target: T1, Hexokinase (Trypanosoma brucei, UniProt Q38C41); assay: Confirmation assay for inhibitors of Trypanosoma brucei hexokinase 1-Analogue-first series. [Related pubchem assays (depositor defined):AID1430, AID1632, AID2516, AID2560, AID2579, AID2600, AID449725, AID492951]; assay type: functional
# T1 sequence (Q38C41 whole entry): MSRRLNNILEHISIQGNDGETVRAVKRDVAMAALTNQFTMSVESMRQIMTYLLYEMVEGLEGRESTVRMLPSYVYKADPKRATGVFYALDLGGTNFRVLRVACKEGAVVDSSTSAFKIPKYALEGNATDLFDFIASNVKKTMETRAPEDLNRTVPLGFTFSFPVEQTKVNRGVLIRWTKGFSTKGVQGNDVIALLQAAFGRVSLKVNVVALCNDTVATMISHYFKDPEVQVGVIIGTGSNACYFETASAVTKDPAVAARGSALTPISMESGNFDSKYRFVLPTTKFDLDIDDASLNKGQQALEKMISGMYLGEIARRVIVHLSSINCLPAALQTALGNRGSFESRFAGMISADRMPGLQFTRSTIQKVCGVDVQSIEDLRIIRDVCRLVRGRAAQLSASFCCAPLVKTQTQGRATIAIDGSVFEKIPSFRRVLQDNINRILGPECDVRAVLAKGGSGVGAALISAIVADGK
# [1] = THP-1 cell cytotoxicity, dose response, cytotoxicity control for non-replicating M. tuberculosis project (AID 489025); assay type: functional
# Vero [2] = assay: cells; assay type: functional; details: Chlorocebus sabaeus
# [3] = HepG2 cell cytotoxicity, dose response, cytotoxicity control for non-replicating M. tuberculosis project (AID 489018); assay type: functional; details: Mycobacterium tuberculosis
# [4] = microbe, parasite or virus in culture; assay type: functional; details: Mycobacterium tuberculosis
# cells = assay type: functional
# HeLa = assay: viability loss in HeLa cells – cell-based, 24 h, cherry-picked samples, cytotoxicity control, dose response (AID 504726); assay type: functional; details: Homo sapiens;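 also: potency for cytotoxicity as loss of luminescence signal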
# [5] = target: DNA dC->dU-editing enzyme APOBEC-3G (Homo sapiens, UniProt Q9HC16); assay: Dose Response confirmation of small molecule APOBEC3G DNA Deaminase Inhibitors via a fluorescence-based single-stranded DNA deaminase assay. [Related pubchem assays (depositor defined):AID493012, AID493028]; assay type: functional
# [6] = target: T2, Phosphoethanolamine/phosphocholine phosphatase (Homo sapiens, UniProt Q8TCT1); assay: SAR assay for compounds that inhibit PHOSPHO1. [Related pubchem assays (depositor defined):AID1545, AID1565, AID1574]
# T2 sequence (Q8TCT1 whole entry): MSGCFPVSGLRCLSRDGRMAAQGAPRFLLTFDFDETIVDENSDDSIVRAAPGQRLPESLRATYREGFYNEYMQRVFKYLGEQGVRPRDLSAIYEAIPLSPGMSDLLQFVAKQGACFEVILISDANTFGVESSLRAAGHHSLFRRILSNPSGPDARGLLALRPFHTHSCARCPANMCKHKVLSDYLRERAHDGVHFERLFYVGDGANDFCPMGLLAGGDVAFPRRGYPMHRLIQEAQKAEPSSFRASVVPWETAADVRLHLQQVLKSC
# [7] = target: Voltage-dependent T-type calcium channel subunit alpha-1H (Homo sapiens, UniProt O95180); assay type: functional;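 also: channel activity triggered by adding a high calcium stimulation buffer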
# HEK293 [8] = assay: cells; assay type: functional, cell-based; details: Homo sapiens
# HEK293 [9] = assay: cells; assay type: functional, cell-based; details: Homo sapiens; remark: listed apart in the source
# HEK293 [10] = assay: inhibition of NOD1-driven NF-kB reporter – cell-based, luminescence, uHTS, primary screen (AID 1578); assay type: functional; details: Homo sapiens
# HEK293 [11] = assay: cells; assay type: functional, cell-based; details: Homo sapiens; remark: listed apart in the source
# NS3 = NS3 (Hepatitis C virus, UniProt A3EZJ3); assay: PubChem AID 2173; set-up: species or system Hepacivirus hominis
# [12] = target: Nucleotide-binding oligomerization domain-containing protein 2 (Homo sapiens, UniProt Q9HC29); assay: inhibition of NOD2-driven NF-kB reporter – cell-based, luminescence, uHTS, HEK293 (AID 1566); assay type: functional
# [13] = target: Cyclin-dependent kinase 5/CDK5 activator 1 (Homo sapiens, UniProt Q00535); assay: blockade of human CDK5 activity – biochemical, cherry-picked samples, set 2, dose response (AID 504545)
# [14] = target: Luciferin 4-monooxygenase (Photinus pyralis, UniProt P08659); assay: inhibition of purified Photinus pyralis luciferase – biochemical, luminescence, dose response (AID 1891)
# [15] = Vero E6 cell cytotoxicity, dose response, cytotoxicity control for non-replicating M. tuberculosis project, secondary assay (AID 492998); assay type: functional, VeroE6; details: Vero C1008
# [16] = A Cell Based Secondary Assay To Explore Cytotoxicity of Compounds that Sensitize Mycobacterium Tuberculosis to Beta-Lactam Antibiotics.; assay type: functional
# [17] = target: Neurotensin receptor type 1 (Homo sapiens, UniProt P30989); assay type: functional;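 also: Image-based confirmatory dose-response assay measuring agonist activity at NTR1; NTR1-expressing U2OS osteosarcoma cells imaged for beta-arrestin GFP spot formation; agonist potency where compounds increase beta-arrestin recruitment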
# [18] = test system: Streptococcus sp. 'group A'; assay: Streptococcus pyogenes SK(-)GAS viability under kanamycin – luminescence, BacTiterGlo, confirmation, counter-screen for streptokinase expression inhibitor project, dose response (AID 1900); assay type: functional, organism-based
# Streptokinase A = target: T3, Streptokinase A (Streptococcus pyogenes serotype M1, UniProt P10520); assay: viability-normalized secreted streptokinase activity reduction – plasminogen activation absorbance, OD405, dose response (AID 1914); assay type: functional, Streptococcus pyogenes M1 GAS;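 also: secreted streptokinase activity via plasminogen activation per viability signal from cell pellet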
# T3 sequence (P10520 whole entry): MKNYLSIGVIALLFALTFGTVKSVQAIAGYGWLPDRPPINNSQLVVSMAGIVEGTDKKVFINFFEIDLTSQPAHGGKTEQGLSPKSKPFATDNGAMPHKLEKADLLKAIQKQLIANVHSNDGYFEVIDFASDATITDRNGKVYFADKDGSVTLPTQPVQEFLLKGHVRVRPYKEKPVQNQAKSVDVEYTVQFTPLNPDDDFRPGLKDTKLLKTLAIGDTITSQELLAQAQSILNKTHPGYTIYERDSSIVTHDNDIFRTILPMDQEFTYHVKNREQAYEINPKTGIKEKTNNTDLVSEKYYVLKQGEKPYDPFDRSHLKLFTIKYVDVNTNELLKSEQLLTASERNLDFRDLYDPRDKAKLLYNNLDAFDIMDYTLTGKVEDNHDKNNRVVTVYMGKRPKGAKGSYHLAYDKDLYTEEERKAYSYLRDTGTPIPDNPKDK
# [19] = target: T4, Microphthalmia-associated transcription factor (Homo sapiens, UniProt O75030); assay: reducers of TRPM1 reporter luminescence, concentration series – cell-based, SK-MEL-5, cherry-picked, set 3, MITF inhibitor project, dose response (AID 493073); assay type: functional;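 also: SK-MEL-5 melanoma cells with luciferase driven by the MITF target TRPM1 promoter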
# T4 sequence (O75030 whole entry): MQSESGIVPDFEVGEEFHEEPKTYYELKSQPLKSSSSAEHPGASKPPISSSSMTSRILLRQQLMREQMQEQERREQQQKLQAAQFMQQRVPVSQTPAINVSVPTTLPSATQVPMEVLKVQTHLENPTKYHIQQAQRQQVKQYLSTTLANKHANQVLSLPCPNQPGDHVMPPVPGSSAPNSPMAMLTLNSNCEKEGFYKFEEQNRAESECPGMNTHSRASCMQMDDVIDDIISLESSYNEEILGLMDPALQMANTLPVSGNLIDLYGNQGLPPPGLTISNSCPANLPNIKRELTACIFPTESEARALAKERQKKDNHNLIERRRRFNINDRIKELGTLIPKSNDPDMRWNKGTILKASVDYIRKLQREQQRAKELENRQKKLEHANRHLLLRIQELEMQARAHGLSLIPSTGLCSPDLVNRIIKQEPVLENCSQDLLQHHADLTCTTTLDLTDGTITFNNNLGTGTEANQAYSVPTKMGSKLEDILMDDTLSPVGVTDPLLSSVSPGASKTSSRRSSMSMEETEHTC
# Streptococcus = assay: GAS UMAA2166 growth inhibition – luminescence, BacTiterGlo, counter-screen for streptokinase expression inhibitor project, dose response (AID 1915); assay type: functional, organism-based;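 also: potency for reduction of bacterial viability or growth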
# CAAX prenyl protease 2 = target: T5, CAAX prenyl protease 2 (Saccharomyces cerevisiae S288c, UniProt Q03530); assay type: biochemical
# T5 sequence (Q03530 whole entry): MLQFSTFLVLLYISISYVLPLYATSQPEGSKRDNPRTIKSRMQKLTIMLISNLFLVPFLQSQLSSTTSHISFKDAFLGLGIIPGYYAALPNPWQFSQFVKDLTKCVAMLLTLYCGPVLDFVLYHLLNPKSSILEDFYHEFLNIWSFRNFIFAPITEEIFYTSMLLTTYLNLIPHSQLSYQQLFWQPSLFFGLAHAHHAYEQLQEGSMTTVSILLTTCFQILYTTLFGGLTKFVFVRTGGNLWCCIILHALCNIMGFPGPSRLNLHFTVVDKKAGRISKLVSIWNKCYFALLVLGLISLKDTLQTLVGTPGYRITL
# [20] = target: T6, Ubiquitin-conjugating enzyme E2 N (Homo sapiens, UniProt P61088); assay type: functional;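 also: Dose-response confirmation in a TR-FRET assay detecting UBC13-driven polyubiquitin chain formation, inhibition measured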
# T6 sequence (P61088 whole entry): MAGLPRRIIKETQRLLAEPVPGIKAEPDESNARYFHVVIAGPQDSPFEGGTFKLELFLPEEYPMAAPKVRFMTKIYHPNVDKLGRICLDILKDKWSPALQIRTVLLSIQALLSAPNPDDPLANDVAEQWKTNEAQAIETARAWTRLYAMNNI
# [21] = target: T7, Type-1 angiotensin II receptor (Homo sapiens, UniProt P30556); assay: antagonism of angiotensin II type 1 receptor – cell-based, uHTS hits, selectivity assay for APJ receptor antagonist project, dose response (AID 463214); assay type: functional;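 also: antagonist potency against angiotensin II stimulated AT1 response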
# T7 sequence (P30556 whole entry): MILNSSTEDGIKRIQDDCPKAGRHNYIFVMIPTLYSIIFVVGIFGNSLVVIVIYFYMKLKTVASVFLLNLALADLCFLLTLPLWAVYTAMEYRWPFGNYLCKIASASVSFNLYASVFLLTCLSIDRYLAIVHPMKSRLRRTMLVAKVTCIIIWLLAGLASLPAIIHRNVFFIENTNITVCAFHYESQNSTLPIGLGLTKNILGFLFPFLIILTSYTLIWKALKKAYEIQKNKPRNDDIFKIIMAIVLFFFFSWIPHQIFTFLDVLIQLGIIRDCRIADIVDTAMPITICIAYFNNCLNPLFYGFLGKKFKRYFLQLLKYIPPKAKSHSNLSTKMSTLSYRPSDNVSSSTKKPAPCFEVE
# Beta-galactosidase = Beta-galactosidase (Escherichia coli, UniProt Q8VNN2); assay: PubChem AID 485352; assay type: functional
# [22] = Luminescence Cell-Based Dose Retest to Confirm Inhibitors of Cancer Stem Cells. [Related pubchem assays (depositor defined):AID2717, AID2721]; assay type: functional, Homo sapiens; details: Homo sapiens
# Vero [23] = assay: viability of Vero cells under compound – cytotoxicity control for flavivirus capping enzyme inhibitors (AID 588742); assay type: functional; details: Chlorocebus sabaeus
# Nonstructural protein 1 = Nonstructural protein 1 (Influenza A virus, UniProt Q194T2); assay type: functional, Influenza A virus (A/California/07/2009(H1N1))
# Genome polyprotein = Genome polyprotein (dengue virus type 2, UniProt P29990); assay: flavivirus cap methylation enzyme inhibition – biochemical, confirmation dose response, primary screen (AID 588689); assay type: functional
# Sequence of Genome polyprotein (P29990 2492-3391 limits assumed): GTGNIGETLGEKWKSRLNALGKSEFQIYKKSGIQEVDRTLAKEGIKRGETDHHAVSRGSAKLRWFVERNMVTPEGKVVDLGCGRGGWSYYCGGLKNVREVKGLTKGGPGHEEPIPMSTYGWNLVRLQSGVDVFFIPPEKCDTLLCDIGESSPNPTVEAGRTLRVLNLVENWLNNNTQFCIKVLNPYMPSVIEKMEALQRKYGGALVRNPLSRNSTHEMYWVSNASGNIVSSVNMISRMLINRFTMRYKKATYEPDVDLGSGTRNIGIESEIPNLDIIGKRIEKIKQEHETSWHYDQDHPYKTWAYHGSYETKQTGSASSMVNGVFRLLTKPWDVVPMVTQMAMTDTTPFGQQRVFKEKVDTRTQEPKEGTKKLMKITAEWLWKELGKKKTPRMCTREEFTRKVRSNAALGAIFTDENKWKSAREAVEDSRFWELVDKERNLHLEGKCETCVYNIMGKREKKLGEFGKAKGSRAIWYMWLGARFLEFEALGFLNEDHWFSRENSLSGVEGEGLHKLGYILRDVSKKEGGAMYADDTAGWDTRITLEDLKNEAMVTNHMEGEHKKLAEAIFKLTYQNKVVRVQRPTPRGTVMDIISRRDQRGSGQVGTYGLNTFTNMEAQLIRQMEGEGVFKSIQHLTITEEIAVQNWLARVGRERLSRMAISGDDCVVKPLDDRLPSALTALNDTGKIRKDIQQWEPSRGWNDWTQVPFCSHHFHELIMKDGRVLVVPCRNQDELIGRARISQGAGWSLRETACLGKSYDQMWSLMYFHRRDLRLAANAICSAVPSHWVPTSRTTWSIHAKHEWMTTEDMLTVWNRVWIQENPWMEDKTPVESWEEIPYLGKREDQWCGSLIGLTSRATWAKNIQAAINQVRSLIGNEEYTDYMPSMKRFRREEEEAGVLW
# Sequence of Voltage-dependent T-type calcium channel subunit alpha-1H (O95180 whole entry): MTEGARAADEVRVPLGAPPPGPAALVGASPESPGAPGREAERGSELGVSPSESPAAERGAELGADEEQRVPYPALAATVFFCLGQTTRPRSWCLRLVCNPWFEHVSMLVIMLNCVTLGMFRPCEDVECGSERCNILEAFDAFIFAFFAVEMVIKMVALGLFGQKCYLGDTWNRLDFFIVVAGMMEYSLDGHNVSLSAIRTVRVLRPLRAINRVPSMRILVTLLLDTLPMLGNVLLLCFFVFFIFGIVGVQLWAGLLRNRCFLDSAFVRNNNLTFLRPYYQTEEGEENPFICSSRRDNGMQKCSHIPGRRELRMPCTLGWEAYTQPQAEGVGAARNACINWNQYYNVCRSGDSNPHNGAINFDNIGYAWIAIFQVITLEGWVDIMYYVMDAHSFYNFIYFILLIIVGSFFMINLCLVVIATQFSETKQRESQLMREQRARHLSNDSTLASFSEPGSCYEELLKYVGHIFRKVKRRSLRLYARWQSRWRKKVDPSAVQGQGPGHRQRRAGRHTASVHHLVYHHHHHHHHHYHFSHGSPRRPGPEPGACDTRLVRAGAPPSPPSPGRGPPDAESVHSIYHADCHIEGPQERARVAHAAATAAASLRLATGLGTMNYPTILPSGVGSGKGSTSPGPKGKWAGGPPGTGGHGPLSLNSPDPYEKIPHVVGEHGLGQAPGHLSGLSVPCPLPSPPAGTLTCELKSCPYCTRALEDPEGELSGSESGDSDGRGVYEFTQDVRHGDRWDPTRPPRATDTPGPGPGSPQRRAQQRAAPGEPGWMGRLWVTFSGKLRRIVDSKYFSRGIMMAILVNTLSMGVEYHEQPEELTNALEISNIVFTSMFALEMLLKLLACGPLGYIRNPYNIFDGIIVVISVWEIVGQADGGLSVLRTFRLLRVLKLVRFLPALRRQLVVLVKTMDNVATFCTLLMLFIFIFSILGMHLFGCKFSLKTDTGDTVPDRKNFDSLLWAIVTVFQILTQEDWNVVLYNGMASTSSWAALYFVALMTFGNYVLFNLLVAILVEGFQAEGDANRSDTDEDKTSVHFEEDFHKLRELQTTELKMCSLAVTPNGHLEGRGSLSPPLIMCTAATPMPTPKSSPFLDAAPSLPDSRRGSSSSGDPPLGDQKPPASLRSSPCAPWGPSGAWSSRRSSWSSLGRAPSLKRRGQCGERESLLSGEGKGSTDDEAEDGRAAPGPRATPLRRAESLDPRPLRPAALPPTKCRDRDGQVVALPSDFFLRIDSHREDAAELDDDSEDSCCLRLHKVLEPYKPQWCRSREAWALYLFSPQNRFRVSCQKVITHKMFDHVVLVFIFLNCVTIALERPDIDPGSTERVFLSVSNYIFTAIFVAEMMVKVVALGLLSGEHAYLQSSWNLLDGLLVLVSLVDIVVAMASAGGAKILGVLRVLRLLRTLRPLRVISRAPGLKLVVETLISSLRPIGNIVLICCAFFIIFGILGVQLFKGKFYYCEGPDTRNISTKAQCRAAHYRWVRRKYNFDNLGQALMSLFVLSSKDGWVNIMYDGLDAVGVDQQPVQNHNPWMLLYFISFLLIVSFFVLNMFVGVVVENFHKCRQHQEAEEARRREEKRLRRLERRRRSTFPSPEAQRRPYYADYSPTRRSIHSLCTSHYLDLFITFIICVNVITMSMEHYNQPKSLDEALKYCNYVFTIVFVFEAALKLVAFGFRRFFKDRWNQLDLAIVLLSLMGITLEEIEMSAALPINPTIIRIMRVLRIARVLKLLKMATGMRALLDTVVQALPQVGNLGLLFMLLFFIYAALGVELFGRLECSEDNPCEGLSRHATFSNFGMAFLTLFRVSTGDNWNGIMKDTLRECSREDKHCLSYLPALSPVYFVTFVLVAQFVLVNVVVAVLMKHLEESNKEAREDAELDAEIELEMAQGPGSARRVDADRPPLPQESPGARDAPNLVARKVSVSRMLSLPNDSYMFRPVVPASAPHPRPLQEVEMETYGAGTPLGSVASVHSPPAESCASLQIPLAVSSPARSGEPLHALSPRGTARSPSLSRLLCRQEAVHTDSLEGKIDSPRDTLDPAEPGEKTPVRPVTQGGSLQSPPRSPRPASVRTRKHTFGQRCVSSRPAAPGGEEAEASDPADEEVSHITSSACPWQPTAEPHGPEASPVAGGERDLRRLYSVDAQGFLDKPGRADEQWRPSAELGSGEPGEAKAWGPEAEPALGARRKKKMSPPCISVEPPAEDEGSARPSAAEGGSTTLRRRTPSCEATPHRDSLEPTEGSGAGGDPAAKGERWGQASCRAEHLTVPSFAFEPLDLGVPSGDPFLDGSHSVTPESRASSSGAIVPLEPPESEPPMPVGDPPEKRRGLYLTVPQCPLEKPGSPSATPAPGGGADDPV
# Sequence of Neurotensin receptor type 1 (P30989 whole entry): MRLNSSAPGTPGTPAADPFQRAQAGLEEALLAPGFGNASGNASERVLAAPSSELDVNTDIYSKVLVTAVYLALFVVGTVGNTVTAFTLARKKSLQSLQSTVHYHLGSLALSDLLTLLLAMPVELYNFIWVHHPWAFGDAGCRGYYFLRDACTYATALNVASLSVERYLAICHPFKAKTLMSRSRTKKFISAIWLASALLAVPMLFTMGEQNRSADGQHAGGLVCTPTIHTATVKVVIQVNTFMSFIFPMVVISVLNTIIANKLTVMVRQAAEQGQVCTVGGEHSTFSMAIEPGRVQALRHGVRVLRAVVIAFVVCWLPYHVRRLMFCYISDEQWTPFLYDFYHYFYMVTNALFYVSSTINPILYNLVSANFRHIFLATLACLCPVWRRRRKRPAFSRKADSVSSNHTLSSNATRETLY
# Sequence of Luciferin 4-monooxygenase (P08659 whole entry): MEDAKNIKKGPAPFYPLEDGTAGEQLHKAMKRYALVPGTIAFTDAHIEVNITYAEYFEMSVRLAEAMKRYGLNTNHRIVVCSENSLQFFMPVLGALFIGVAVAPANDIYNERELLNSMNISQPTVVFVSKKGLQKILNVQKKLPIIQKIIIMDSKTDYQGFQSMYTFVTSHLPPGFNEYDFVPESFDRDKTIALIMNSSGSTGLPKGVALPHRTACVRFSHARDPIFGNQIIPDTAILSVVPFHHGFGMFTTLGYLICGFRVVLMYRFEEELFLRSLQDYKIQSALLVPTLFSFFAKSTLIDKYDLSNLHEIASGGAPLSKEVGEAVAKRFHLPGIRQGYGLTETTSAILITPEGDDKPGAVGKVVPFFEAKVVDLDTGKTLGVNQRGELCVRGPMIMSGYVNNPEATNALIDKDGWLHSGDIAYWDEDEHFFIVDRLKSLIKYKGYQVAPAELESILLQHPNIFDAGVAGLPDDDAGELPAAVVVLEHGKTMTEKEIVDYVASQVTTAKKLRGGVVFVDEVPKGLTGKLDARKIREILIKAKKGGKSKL
# Sequence of Cyclin-dependent kinase 5/CDK5 activator 1 (Q00535 whole entry): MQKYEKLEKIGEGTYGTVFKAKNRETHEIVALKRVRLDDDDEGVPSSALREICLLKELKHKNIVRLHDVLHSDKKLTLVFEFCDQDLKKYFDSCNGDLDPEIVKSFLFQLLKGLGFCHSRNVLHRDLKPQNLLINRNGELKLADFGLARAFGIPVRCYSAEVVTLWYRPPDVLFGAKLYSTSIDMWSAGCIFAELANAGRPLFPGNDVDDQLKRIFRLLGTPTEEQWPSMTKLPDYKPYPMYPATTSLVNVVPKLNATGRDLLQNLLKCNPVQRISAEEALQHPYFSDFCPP
# Sequence of Cyclin-dependent kinase 5/CDK5 activator 1 (Q15078 whole entry, further chain): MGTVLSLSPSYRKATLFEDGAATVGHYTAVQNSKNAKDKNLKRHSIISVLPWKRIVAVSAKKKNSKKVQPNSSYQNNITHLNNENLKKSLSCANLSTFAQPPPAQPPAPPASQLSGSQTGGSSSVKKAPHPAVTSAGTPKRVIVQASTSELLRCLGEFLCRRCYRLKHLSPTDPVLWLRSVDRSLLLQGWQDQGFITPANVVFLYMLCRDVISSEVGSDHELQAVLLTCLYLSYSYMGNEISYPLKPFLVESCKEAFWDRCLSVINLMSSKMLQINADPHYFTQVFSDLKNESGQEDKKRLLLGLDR
# Sequence of Nonstructural protein 1 (Q194T2 whole entry): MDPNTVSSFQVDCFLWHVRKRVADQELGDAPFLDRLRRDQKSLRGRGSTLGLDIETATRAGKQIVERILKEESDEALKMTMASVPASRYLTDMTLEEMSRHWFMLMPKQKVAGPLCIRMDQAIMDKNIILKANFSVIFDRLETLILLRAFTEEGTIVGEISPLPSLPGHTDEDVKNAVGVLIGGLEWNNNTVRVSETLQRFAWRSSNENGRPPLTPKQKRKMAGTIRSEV
compound,measurement,setting,value
CCOc1ccc(C(=O)Nc2cc(Cl)ccc2C(=O)O)cc1,IC50,Hexokinase,20.7 µM (active)
CCNc1nc(NC(C)(C)C)nc(N2CCCCC2)n1,CC50,[1],> 40 µM (active)
same,CC50,Vero [2],> 25 µM (active)
same,CC50,[3],> 20 µM (active)
same,CC50,[4],13.4 µM (active)
same,IC50,cells,28.8 µM (active)
COC(=O)c1ccc(Cl)cc1NS(=O)(=O)c1ccc(OC)cc1,IC50,Hexokinase,> 25 µM (inactive)
CCn1c(S)nnc1-c1ccc([N+](=O)[O-])cc1,AC50,HeLa,239 µM (active)
same,IC50,[5],9.77 µM (active)
COc1ccc(-n2sc3cc(F)ccc3c2=O)cc1,IC50,[6],5.42 µM (inactive)
Cc1ccc(S(=O)(=O)N2CCCC(NC(=O)N3CCN(c4ccccc4)CC3)C2)cc1 (stereo not drawn),EC50,[7],8.79 µM (active)
COc1ccccc1OCCCOc1cccc(/C=C2\SC(=O)NC2=O)c1,IC50,HEK293 [8],> 20 µM (inactive)
same,IC50,HEK293 [9],15.7 µM (active)
same,EC50,HEK293 [10],9.43 µM (active)
same,IC50,HEK293 [11],> 20 µM (inactive)
same,IC50,NS3,3.82 µM (active)
same,EC50,[12],9.15 µM (active)
COc1ccc(C(=O)ON=C(N)c2ccccc2)cc1,AC50,[13],17.2 µM (active)
same,EC50,[14],1.21 µM (active)
O=[N+]([O-])c1ccc2[nH]c(-c3ccccn3)nc2c1,CC50,[1],13.4 µM (active)
same,CC50,[3],17.4 µM (active)
same,CC50,[15],14.8 µM (active)
same,IC50,cells,42.1 µM (active)
O=C(NCc1ccccc1)n1sc2ccccc2c1=O,IC50,Hexokinase,4.44 µM (active)
COC(=O)/C(=C\Nc1ccc(Cl)cc1Cl)NC(=O)c1ccc(Cl)cc1Cl,CC50,[16],> 40 µM (active)
N#CC1=C(c2ccccc2)/C(=C/c2ccccc2)OC1=O,EC50,[17],6.66 µM (active)
same,CC50,[1],> 40 µM (active)
same,EC50,[18],10.6 µM (active)
same,EC50,Streptokinase A,2.38 µM (active)
same,AC50,[19],4.25 µM (active)
same,CC50,[15],> 20 µM (active)
same,CC50,[4],24.1 µM (active)
same,EC50,Streptococcus,> 150 µM (not active)
same,IC50,cells,10 µM (active)
O=C(COC(=O)c1ccccc1Cc1ccccc1)NC1CCS(=O)(=O)C1 (stereo not drawn),AC50,CAAX prenyl protease 2,4.52 µM (active)
COc1ccc(CNC(=O)CSCc2cnn(-c3ccccc3)c2-n2cccc2)cc1,EC50,[7],4.8 µM (active)
Cc1ccc(NC(=O)CSc2nnc(Cc3cccn3C)n2-c2ccc(F)cc2)cc1,EC50,[7],3.49 µM (active)
CC(C)N1CCc2c(sc(NC(=O)c3cc(-c4cccs4)nc4ccccc34)c2C(N)=O)C1,IC50,[20],> 20 µM (inactive)
same,CC50,[16],6.25 µM (active)
same,IC50,[21],> 40 µM (not active)
same,EC50,Beta-galactosidase,> 40 µM (inactive)
same,AC50,[22],13.2 µM (active)
CCOC(=O)c1cc(-c2ccc(/C=C3/C(=O)N(c4ccc(C(=O)O)cc4)N=C3C)o2)ccc1Cl,CC50,Vero [23],24.9 µM (active)
same,EC50,[17],16 µM (active)
same,IC50,Nonstructural protein 1,66.1 µM (active)
same,CC50,Vero [2],> 25 µM (active)
same,IC50,Genome polyprotein,21.2 µM (active)
COc1ccccc1CC(=O)Nc1ccc2c(C)cc(=O)oc2c1,AC50,CAAX prenyl protease 2,34.5 µM (active)
